According to patent publication US20210395262A1, “INHIBITORS OF HUMAN IMMUNODEFICIENCY VIRUS REPLICATION” (ViiV HEALTHCARE UK (NO.5) LIMITED, priority 2018, published 2021):
Like-named read-outs stand apart in the source and are kept apart here.

How the values were obtained:
[1] = Compound cytotoxicity, XTT-based colorimetric assay; type: cell-based; details: human
How it was run: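 Run under the antiviral-assay protocol but without virus. Viability was read on day 4 and CC50 values were derived from the readout.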

recombinant NL4-3 virus = assay: HIV cell culture assay (antiviral activity, luciferase readout in MT-2 cells); type: cell-based; details: Human immunodeficiency virus 1, NL43, MT2
How it was run: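 MT-2 cells infected for 4-5 days with NL4-3 reference virus carrying Renilla luciferase in place of part of nef, in presence of serial compound dilutions. Luciferase activity read with live-cell substrate. EC50 derived from median effect equation, slope parameter m.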

[2] = uninfected MT2 cells, day 4, XTT, read-out: CC50

C[C@@H]1CN(c2ccc3c(=O)n(-c4ccc(Cl)c5c(NS(C)(=O)=O)nn(CC(F)(F)F)c45)c([C@H](Cc4cc(F)cc(F)c4)NC(=O)Cn4nc(C(F)(F)F)c5c4C(F)(F)[C@@H]4C[C@H]54)nc3c2)C[C@H](C)O1 (atropisomer, axis not shown; (P)) [Example 61, N—((S)-1-((3P)-3-(4-chloro-3-(methylsulfonamido)-1-(2,2,2-trifluoroethyl)-1H-indazol-7-yl)-7-((2S,6R)-2,6-dimethylmorpholino)-4-oxo-3,4-dihydroquinazolin-2-yl)-2-(3,5-difluorophenyl)ethyl)-2-((3bS,4aR)-5,5-difluoro-3-(trifluoromethyl)-3b,4,4a,5-tetrahydro-1H-cyclopropa[3,4]cyclopenta[1,2-c]pyrazol-1-yl)acetamide]
CC50 at 4 days [1, 2]: > 500 nM
EC50 (recombinant NL4-3 virus): 0.084 nM

C[C@@H]1CN(c2ccc3c(=O)n(-c4ccc(Cl)c5c(NS(=O)(=O)C6CC6)nn(CC(F)(F)F)c45)c([C@H](Cc4cc(F)cc(F)c4)NC(=O)Cn4nc(C(F)F)c5c4C(F)(F)[C@@H]4C[C@H]54)nc3c2)C[C@H](C)O1 (atropisomer, axis not shown; (P)) [Example 62, N—((S)-1-((3P)-3-(4-chloro-3-(cyclopropanesulfonamido)-1-(2,2,2-trifluoroethyl)-1H-indazol-7-yl)-7-((2S,6R)-2,6-dimethylmorpholino)-4-oxo-3,4-dihydroquinazolin-2-yl)-2-(3,5-difluorophenyl)ethyl)-2-((3bS,4aR)-3-(difluoromethyl)-5,5-difluoro-3b,4,4a,5-tetrahydro-1H-cyclopropa[3,4]cyclopenta[1,2-c]pyrazol-1-yl)acetamide]
CC50 at 4 days [1, 2]: > 500 nM
EC50 (recombinant NL4-3 virus): 0.067 nM

C[C@@H]1CN(c2ccc3c(=O)n(-c4ccc(Cl)c5c(NS(=O)(=O)C6CC6)nn(CC(F)(F)F)c45)c([C@H](Cc4cc(F)cc(F)c4)NC(=O)Cn4nc(C(F)(F)F)c5c4C(F)(F)[C@@H]4C[C@H]54)nc3c2)C[C@H](C)O1 (atropisomer, axis not shown; (P)) [Example 63, N—((S)-1-((3P)-3-(4-chloro-3-(cyclopropanesulfonamido)-1-(2,2,2-trifluoroethyl)-1H-indazol-7-yl)-7-((2S,6R)-2,6-dimethylmorpholino)-4-oxo-3,4-dihydroquinazolin-2-yl)-2-(3,5-difluorophenyl)ethyl)-2-((3bS,4aR)-5,5-difluoro-3-(trifluoromethyl)-3b,4,4a,5-tetrahydro-1H-cyclopropa[3,4]cyclopenta[1,2-c]pyrazol-1-yl)acetamide]
CC50 at 4 days [1, 2]: > 500 nM
EC50 (recombinant NL4-3 virus): 0.15 nM

CCS(=O)(=O)Nc1nn(C)c2c(-n3c([C@H](Cc4cc(F)cc(F)c4)NC(=O)Cn4nc(C(F)F)c5c4C(F)(F)[C@@H]4C[C@H]54)nc4cc(N5CCOCC5)ccc4c3=O)ccc(Cl)c12 (atropisomer, axis not shown; (P)) [Example 65, N—((S)-1-((3P)-3-(4-chloro-3-(ethylsulfonamido)-1-methyl-1H-indazol-7-yl)-7-morpholino-4-oxo-3,4-dihydroquinazolin-2-yl)-2-(3,5-difluorophenyl)ethyl)-2-((3bS,4aR)-3-(difluoromethyl)-5,5-difluoro-3b,4,4a,5-tetrahydro-1H-cyclopropa[3,4]cyclopenta[1,2-c]pyrazol-1-yl)acetamide]
CC50 at 4 days [1, 2]: > 500 nM
EC50 (recombinant NL4-3 virus): 0.051 nM

CCCS(=O)(=O)Nc1nn(C)c2c(-n3c([C@H](Cc4cc(F)cc(F)c4)NC(=O)Cn4nc(C(F)F)c5c4C(F)(F)[C@@H]4C[C@H]54)nc4cc(N5CCOCC5)ccc4c3=O)ccc(Cl)c12 (atropisomer, axis not shown; (P)) [Example 66, N—((S)-1-((3P)-3-(4-chloro-1-methyl-3-(propylsulfonamido)-1H-indazol-7-yl)-7-morpholino-4-oxo-3,4-dihydroquinazolin-2-yl)-2-(3,5-difluorophenyl)ethyl)-2-((3bS,4aR)-3-(difluoromethyl)-5,5-difluoro-3b,4,4a,5-tetrahydro-1H-cyclopropa[3,4]cyclopenta[1,2-c]pyrazol-1-yl)acetamide]
CC50 at 4 days [1, 2]: > 500 nM
EC50 (recombinant NL4-3 virus): 0.066 nM

Cn1nc(NS(C)(=O)=O)c2c(Cl)ccc(-n3c([C@H](Cc4cc(F)cc(F)c4)NC(=O)Cn4nc(C(F)F)c5c4C(F)(F)[C@@H]4C[C@H]54)nc4cc(N5C6COCC5COC6)ccc4c3=O)c21 [Example 6, N—((S)-1-(7-(3,7-dioxa-9-azabicyclo[3.3.1]nonan-9-yl)-(3P)-3-(4-chloro-1-methyl-3-(methylsulfonamido)-1H-indazol-7-yl)-4-oxo-3,4-dihydroquinazolin-2-yl)-2-(3,5-difluorophenyl)ethyl)-2-((3bS,4aR)-3-(difluoromethyl)-5,5-difluoro-3b,4,4a,5-tetrahydro-1H-cyclopropa[3,4]cyclopenta[1,2-c]pyrazol-1-yl)acetamide]
CC50 at 4 days [1]: > 500 nM
EC50 (recombinant NL4-3 virus): 0.145 nM

Cn1nc(NS(C)(=O)=O)c2c(Cl)ccc(-n3c([C@H](Cc4cc(F)cc(F)c4)NC(=O)Cn4nc(C(F)F)c5c4C(F)(F)[C@@H]4C[C@H]54)nc4cc(N5CC6CCC(C5)O6)ccc4c3=O)c21 [Example 27, N—((S)-1-(7-((1R,5S)-8-oxa-3-azabicyclo[3.2.1]octan-3-yl)-(3P)-3-(4-chloro-1-methyl-3-(methylsulfonamido)-1H-indazol-7-yl)-4-oxo-3,4-dihydroquinazolin-2-yl)-2-(3,5-difluorophenyl)ethyl)-2-((3bS,4aR)-3-(difluoromethyl)-5,5-difluoro-3b,4,4a,5-tetrahydro-1H-cyclopropa[3,4]cyclopenta[1,2-c]pyrazol-1-yl)acetamide]
CC50 at 4 days [1, 2]: > 500 nM
EC50 (recombinant NL4-3 virus): 0.051 nM

COC1CCCN(c2ccc3c(=O)n(-c4ccc(Cl)c5c(NS(C)(=O)=O)nn(C)c45)c([C@H](Cc4cc(F)cc(F)c4)NC(=O)Cn4nc(C(F)F)c5c4C(F)(F)[C@@H]4C[C@H]54)nc3c2)C1 (stereo partly drawn) [Example 29, N-((1S)-1-((3P)-3-(4-chloro-1-methyl-3-(methylsulfonamido)-1H-indazol-7-yl)-7-(3-methoxypiperidin-1-yl)-4-oxo-3,4-dihydroquinazolin-2-yl)-2-(3,5-difluorophenyl)ethyl)-2-((3bS,4aR)-3-(difluoromethyl)-5,5-difluoro-3b,4,4a,5-tetrahydro-1H-cyclopropa[3,4]cyclopenta[1,2-c]pyrazol-1-yl)acetamide]
CC50 at 4 days [1, 2]: > 500 nM
EC50 (recombinant NL4-3 virus): 0.052 nM

C[C@@H]1CN(c2ccc3c(=O)n(-c4ccc(Cl)c5c(NS(C)(=O)=O)nn(CC(F)F)c45)c([C@H](Cc4cc(F)cc(F)c4)NC(=O)Cn4nc(C(F)F)cc4C4CC4)nc3c2)C[C@H](C)O1 [Example 46, N—((S)-1-((3P)-3-(4-chloro-1-(2,2-difluoroethyl)-3-(methylsulfonamido)-1H-indazol-7-yl)-7-((2S,6R)-2,6-dimethylmorpholino)-4-oxo-3,4-dihydroquinazolin-2-yl)-2-(3,5-difluorophenyl)ethyl)-2-(5-cyclopropyl-3-(difluoromethyl)-1H-pyrazol-1-yl)acetamide]
CC50 at 4 days [1, 2]: > 500 nM
EC50 (recombinant NL4-3 virus): 0.58 nM

Cc1cc(C(F)F)nn1C(C)C(=O)N[C@@H](Cc1cc(F)cc(F)c1)c1nc2cc(N3C[C@@H](C)O[C@@H](C)C3)ccc2c(=O)n1-c1ccc(Cl)c2c(NS(C)(=O)=O)nn(CC(F)F)c12 (stereo partly drawn) [Example 51, N—((S)-1-((3P)-3-(4-chloro-1-(2,2-difluoroethyl)-3-(methylsulfonamido)-1H-indazol-7-yl)-7-((2S,6R)-2,6-dimethylmorpholino)-4-oxo-3,4-dihydroquinazolin-2-yl)-2-(3,5-difluorophenyl)ethyl)-2-(3-(difluoromethyl)-5-methyl-1H-pyrazol-1-yl)propanamide]
CC50 at 4 days [1, 2]: > 500 nM
EC50 (recombinant NL4-3 virus): 1.9 nM

C[C@@H]1CN(c2ccc3c(=O)n(-c4ccc(Cl)c5c(NS(C)(=O)=O)nn(CC(F)F)c45)c([C@H](Cc4cc(F)cc(F)c4)NC(=O)Cc4cn(C5CC5)c5ccccc45)nc3c2)C[C@H](C)O1 [Example 52, N—((S)-1-((3P)-3-(4-chloro-1-(2,2-difluoroethyl)-3-(methylsulfonamido)-1H-indazol-7-yl)-7-((2S,6R)-2,6-dimethylmorpholino)-4-oxo-3,4-dihydroquinazolin-2-yl)-2-(3,5-difluorophenyl)ethyl)-2-(1-cyclopropyl-1H-indol-3-yl)acetamide]
CC50 at 4 days [1, 2]: > 500 nM
EC50 (recombinant NL4-3 virus): 1.1 nM

CC(C(=O)N[C@@H](Cc1cc(F)cc(F)c1)c1nc2cc(N3C[C@@H](C)O[C@@H](C)C3)ccc2c(=O)n1-c1ccc(Cl)c2c(NS(C)(=O)=O)nn(CC(F)F)c12)n1nc(C(F)(F)F)cc1C1CC1 (some centres unmarked) [Example 55]
CC50 at 4 days [1, 2]: > 500 nM
EC50 (recombinant NL4-3 virus): 4.3 nM

Cn1nc(NS(C)(=O)=O)c2c(Cl)ccc(-n3c([C@H](Cc4cc(F)cc(F)c4)NC(=O)Cn4nc(C(F)F)c5c4C(F)(F)[C@@H]4C[C@H]54)nc4cc(N5C6CCC5COC6)ccc4c3=O)c21 [Example 64, N—((S)-1-(7-((1R,5S)-3-oxa-8-azabicyclo[3.2.1]octan-8-yl)-(3P)-3-(4-chloro-1-methyl-3-(methylsulfonamido)-1H-indazol-7-yl)-4-oxo-3,4-dihydroquinazolin-2-yl)-2-(3,5-difluorophenyl)ethyl)-2-((3bS,4aR)-3-(difluoromethyl)-5,5-difluoro-3b,4,4a,5-tetrahydro-1H-cyclopropa[3,4]cyclopenta[1,2-c]pyrazol-1-yl)acetamide]
CC50 at 4 days [1]: > 500 nM
EC50 (recombinant NL4-3 virus): 0.037 nM
